The values below come from patent publication US20150064328A1, “REBAUDIOSIDE C AND ITS STEREOISOMERS AS NATURAL PRODUCT SWEETNESS ENHANCERS” (Redpoint Bio Corporation, priority 2009, published 2015).

“Also recorded” adds a separate entry of the source.

A short description of test [1]: Double-blind controlled sweetness intensity test, sequential monadic, sip and spit (Example 1 protocol). The test is classed as in vivo, human. From the text: As used herein, the term “sweetness intensity” refers to the relative strength of sweet sensation as observed or experienced by an individual, e.g., a human, or a degree or amount of sweetness detected by a taster, for example on the scale from 0 (none) to 8 (very strong) (see Example 1) used in sensory evaluations according to the procedure described in American Society for Testing Materials, Special Technical Publication-434: “Manual on Sensory Testing Methods,” ASTM International, West Conshohocken, Pa. (1996). The sweetness enhancing effect of 300 μM Reb C (Chromadex, CA; purity 94.9%; 2.9% impurities other than water) on 5% (w/v-%) sucrose solution was evaluated in a double-blind controlled test conducted according to the following protocol. Three products were evaluated by trained judges as follows: • high concentration sucrose (7% w/v) • low concentration sucrose (5% w/v) • low concentration sucrose+sweetness enhancer (test compound) The products were evaluated using a sequential monadic test protocol. Subjects were given three samples to evaluate. Each subject was directed to swirl the first sample in his or her mouth for 3-5 seconds, expectorate the entire sample into a discard cup, and then assess the sweetness intensity of the sample. The intensity was rated on a score card by marking a numerical value along a scale from 0 to 8 (e.g., 0-none, 2=slight, 4=definite, 8=very strong). Following the decision regarding the sweetness intensity, subjects were instructed to rinse their mouth with water and spit in the discard cup. Subjects then were given unsalted crackers to cleanse the palate. A period of 10 minutes elapsed between presentations of each sample to reduce the potential influence of residual taste effects. A second sample was then presented and evaluated as above and the same procedure was followed until all three products were evaluated. Sample presentation was randomized to avoid order of presentation bias. To participate in the sensory panel, judges or subjects were chosen from an expert taste panel. These subjects were screened for taste acuity and were trained in evaluating solutions using the sip and spit protocol and were trained in using a rating ballot. The number of judges who participated in the study was 20. The female subjects were all non-pregnant and all volunteers were of <55 years of age with no history of allergy to sucrose. Judges were asked to execute an informed consent form. Specifically, the following instructions were given to the judges: Please take a sip of water. Carefully take the cap off the sample cup placed in front of you. Sip, swirl for 3-5 seconds, and then spit the sample into the cup provided, then assess the intensity of the sweetness of the sample. Please evaluate the sample for the intensity of the sweet flavor and put a vertical mark on the number that best describes the intensity. Rinse your mouth with the water provided and spit into the discard cup. Use crackers provided to cleanse your palate before evaluating the next sample. If any other flavor was present in the sample please describe it. Please rinse your mouth again several times and have some more water and unsalted crackers. You will now have a rest period of 10 minutes before you will be given the next sample.

The nature of test [2]: Double-blind controlled sweetness intensity test, sequential monadic, taste and swallow (Example 6 protocol). It is filed as in vivo, human.
Test [3] is described as follows: Forced-choice taste test of Reb C water solution versus water. It is filed as in vivo, human. The conditions noted are these: 250 μM Reb C water solution. How it is done:
The taste of a 250 μM Reb C solution was evaluated by a test group having five (5) subjects as follows (Forced-choice): Subjects were presented with 2 cups, each containing 10 ml of either 250 μM Reb C water solution or water (room temperature). […] Subjects were asked to sip most or all of the 10 ml from the first cup, swish the liquid in their oral cavity, and expectorate into a cup, then rinse their mouths vigorously with water. Soon thereafter, the contents of the second cup were sampled in the same manner. Then, subjects were asked to choose the sweeter of the two samples, or if not sweet, to describe the qualitative taste profile of the sample having a detectable taste.

Test [4] is described as follows: Open qualitative taste report of Reb C water solutions. The test is classed as in vivo, human. As to conditions: 250 and 300 μM Reb C in water; all 4 subjects gave the same description. How it is done: The taste of 250 μM and 300 μM Reb C solutions were evaluated as follows by another test group having four (4) subjects as follows: 10 ml solutions of 250 and 300 μM Reb C in water were sampled by four subjects who were asked to report their qualitative taste experience of the solutions.

Test [5] is described as follows: Quantitative taste profile by trained panel (sweet, bitter, salt, sour, licorice). It is filed as in vivo, human. As for the experimental part:
The taste of 150, 300, and 600 μM Reb C was evaluated by a test group. 10 panelists were trained over a period of a few weeks to provide a quantitative flavor profile of Reb C. Panelists first were trained using standard tastants representing the different taste modalities given in FIG. 7 (i.e., sweet, bitter, salt, sour, and licorice). They then were trained to use the scales when flavors were mixed together. All intensity ratings are on scales ranging from 0 (no taste) to 8 (highest intensity). The intensity rating for sweet is essentially the same as used in Examples 1 and 6. The taste profiles were obtained for 150, 300, and 600 μM Reb C. Reb A (0.2 mg/ml, a concentration used in some food/beverage applications for sweetening) was also evaluated in the test for comparison. The scale is not linear at the bottom. A rating of 1 is around the threshold for sweetness detection.

The conditions of test [6]: cited from earlier work.
Setting [7] is: 300 μM Reb C in 8% (w/v-%) fructose solution, FIG. 16.
The mark [8] stands for this setting: sweetness intensities equivalent to 3% (w/v-%) sucrose.
[9] abbreviates: sweetness intensities equivalent to 7% (w/v-%) sucrose.

As to `OC[C@H]1O[C@@](CO)(O[C@H]2O[C@H](CO)[C@@H](O)[C@H](O)[C@H]2O)[C@@H](O)[C@@H]1O` [sucrose, α-D-glucopyranosyl-(1->2)-β-D-fructofuranose, reference compound], in test [1] (11% (w/v-%) sucrose solution, high concentration comparator, scale 0 to 8), the “mean sweetness intensity score” value came out at 6.95.

Consider `C=C1C[C@@]23CC[C@H]4[C@@](C)(CCC[C@@]4(C)C(=O)O[C@@H]4O[C@H](CO)[C@@H](O)[C@H](O)[C@H]4O)[C@@H]2CC[C@]1(O[C@@H]1O[C@H](CO)[C@@H](O)[C@H](O[C@@H]2O[C@H](CO)[C@@H](O)[C@H](O)[C@H]2O)[C@H]1O[C@@H]1O[C@@H](C)[C@H](O)[C@@H](O)[C@H]1O)C3` [Reb C, Rebaudioside C], for which the “sweetness of sucrose solution in combination with Reb C” value in test [1] (150 μM Reb C in 8% (w/v-%) sucrose solution, FIG. 4) was “between that of the 8% (w/v-%) sucrose solution and that of an 11% (w/v-%) sucrose solution”; in test [1] (300 μM Reb C in 5% (w/v-%) sucrose solution, 20 judges, scale 0 to 8, FIG. 1), “indistinguishable from that of a 7% (w/v-%) sucrose solution”; in test [1] (300 μM Reb C in 8% (w/v-%) sucrose solution, FIG. 3) it was “close to that of an 11% (w/v-%) sucrose solution”. The “sweetness of fructose solution in combination with Reb C” value in test [1] (300 μM Reb C in 5% (w/v-%) fructose solution, FIG. 2) was “close to that of a 7% (w/v-%) fructose solution”; in test [2] (setting [7]), “between that of the 8% (w/v-%) fructose solution and that of an 11% (w/v-%) fructose solution”. In test [1] (8% (w/v-%) sucrose solution with 150 μM Reb C, scale 0 to 8, 8% sucrose solution alone scored 5.30), the “mean sweetness intensity score” value is recorded as 6.10. Further, the “statistical significance of the effect of Reb C” value in test [2] (setting [7]) was “not statistically significant”. In addition, the “sweetness of iced tea with sucrose in combination with Reb C” value in test [2] (300 μM Reb C in iced tea with 8% (w/v-%) sucrose, FIG. 6) is “between that of the 8% (w/v-%) sucrose solution and that of an 11% (w/v-%) sucrose solution”. Moreover, the “sweetness of iced tea with HFCS55 in combination with Reb C” value in test [2] (300 μM Reb C in iced tea with 10.39% (w/v-%) HFCS55, 20 judges, FIG. 5) is on record as “indistinguishable from that of a 14.29% (w/v-%) HFCS55 (HFCS) solution”. For the same compound, the “sweetness intensity of cola beverage with HFCS55 in combination with Reb C” value in test [2] (190 ppm Reb C, 10.39% (w/v-%) HFCS55, buffered with citric acid, pH 2.7-2.8, FIG. 10) is given as “significantly increases the sweetness intensity to that of 14.29% HFCS55”; in test [2] (310 ppm Reb C, 10.39% (w/v-%) HFCS55, buffered with phosphoric acid, FIG. 15) it was “increased significantly the sweetness intensity of a cola beverage containing 10.39% (w/v-%) HFCS55, but did not reach the sweetness of a 14.29% (w/v-%) HFCS55 cola beverage”. In test [2] (190 ppm Reb C, 10.39% (w/v-%) HFCS55, buffered with phosphoric acid, FIG. 14), the “sweetness of cola beverage with HFCS55 in combination with Reb C” value was “not higher than that of 10.39% (w/v-%) HFCS55 cola beverage alone”. In addition, the “sweetness of lemon-lime soda with HFCS55 in combination with Reb C” value in test [2] (190 ppm Reb C, 10.39% (w/v-%) HFCS55, citric acid 0.15%, pH 2.6-2.7, FIG. 12) is “did not reach the sweetness of a 14.29% (w/v-%) HFCS55 solution”. Moreover, in test [2] (285 ppm (300 μM) Reb C in 7.14% erythritol solution, equivalent to 5% (w/v-%) sucrose, FIG. 9), the “sweetness of erythritol solution in combination with Reb C” value is “significantly sweeter than the 7.14% erythritol solution alone, but did not achieve the sweetness of a 10% erythritol solution”. Besides, the “sweetness of unsweetened cola beverage with Reb C” value in test [2] (concentrations 190 ppm or below (95, 190 and 285 ppm tested), FIG. 11) is on record as “does not increase the sweetness of an unsweetened cola beverage”. In test [2] (control group of Example 11, concentrations 190 ppm or below (95, 190 and 285 ppm tested)), the “sweetness of unsweetened lemon-lime soda with Reb C” value was “does not increase the sweetness of an unsweetened cola beverage”. In test [3] (5 subjects, forced-choice), the “identification of the sample containing Reb C versus water” value was “All subjects correctly identified the sample containing Reb C”. Moreover, in test [3] (subjects 1 to 5), the “qualitative taste description, one per subject” value is given as “Metallic, not sweet; also recorded: Aversive (“Nasty”); also recorded: Slight sweet, astringent; also recorded: Faintly sweet; also recorded: Slight sweet/licorice”. Also, the qualitative taste description entry in test [4] is on record as “Both concentrations bitter and/or licorice”. Besides, the “unpleasant tastes, bitter and licorice” value in test [5] (150, 300 and 600 μM Reb C alone, FIG. 7) is reported as “barely detected”. Besides, in test [5] (150, 300 and 600 μM Reb C, 10 panelists, scale 0 to 8, FIG. 7), the intrinsic sweetness result is “little or no intrinsic sweetness”. The “unpleasant tastes, bitter and licorice, when combined with sugar” value in test [5] (Reb C combined with sugar) is recorded as “undetected”.

In the case of `C=C1C[C@@]23CC[C@H]4[C@@](C)(CCC[C@@]4(C)C(=O)O[C@@H]4O[C@H](CO)[C@@H](O)[C@H](O)[C@H]4O)[C@@H]2CC[C@]1(O[C@@H]1O[C@H](CO)[C@@H](O)[C@H](O[C@@H]2O[C@H](CO)[C@@H](O)[C@H](O)[C@H]2O)[C@H]1O[C@@H]1O[C@H](CO)[C@@H](O)[C@H](O)[C@H]1O)C3` [rebaudioside A], in test [6] (setting [8]), the “effect in mixtures with fructose and glucose” value is recorded as “additive effect”; the “effect in mixtures with sucrose” value is recorded as “synergistic effect”. Also, in test [6] (sweetness intensities equivalent to 5% (w/v-%)), the “effect in mixtures with fructose, glucose and sucrose” value is listed as “additive effect”. Also, in test [6] (setting [9]), the “effect with a mixture with sucrose” value is “additive effect”; the “effect with mixtures with glucose and fructose” value is “suppressive effect”.
